Legend:
Mus musculus [1] = experiment: Average weight of the mouse after treating with 60 mg/kg dose for 7 days.; format: functional
Mus musculus [2] = experiment: Average weight of the mouse after treating with 60 mg/kg dose for 1 day.; format: functional
Mus musculus [3] = experiment: Average weight of the mouse after treating with 30 mg/kg dose for 1 day.; format: functional
L1210 [4] = experiment: In vivo anti tumor activity against L1210 leukemia in 10 mice measured as Increased life span at 30 mg/kg.; format: functional; details: Mus musculus
Mus musculus [5] = experiment: Average weight of the mouse after treating with 15 mg/kg dose for 7 days.; format: functional
Mus musculus [6] = experiment: Average weight of the mouse after treating with 15 mg/kg dose for 1 day.; format: functional
L1210 [7] = experiment: In vivo antitumor activity against L1210 leukemia in 16 mice measured as T/C values; T/C = 16/9; format: functional, Mus musculus
L1210 [8] = experiment: In vivo anti tumor activity against L1210 leukemia in 10 mice measured as Increased life span at 60 mg/kg.; format: functional; details: Mus musculus
L1210 [9] = experiment: In vivo antitumor activity against L1210 leukemia in 10 mice measured as median survival range at 15 mg/kg; Value ranges from(15-20); format: functional, Mus musculus
Mus musculus [10] = experiment: Average weight of the mouse after treating with 30 mg/kg dose for 7 days.; format: functional
L1210 [11] = experiment: In vivo anti tumor activity against L1210 leukemia in 10 mice measured as median survival range at 60 mg/kg; Value ranges from(7-24); format: functional, Mus musculus
L1210 [12] = experiment: In vivo anti tumor activity against L1210 leukemia in 5 mice measured as Increased life span.; format: functional, Mus musculus
L1210 [13] = experiment: In vivo anti tumor activity against L1210 leukemia in 10 mice measured as median survival range at 30 mg/kg; Value ranges from(11-17).; format: functional, Mus musculus
Mus musculus [14] = experiment: Average weight of the mouse after treating with 20 mg/kg dose for 1 day.; format: functional; parameters: unit not given here
L1210 [15] = experiment: In vivo antitumor activity against L1210 leukemia in 5 mice measured as median survival range at 40 mg/kg; Value ranges from (16-19); format: functional, Mus musculus
Mus musculus [16] = experiment: Average weight change in mouse after treating with 40 mg/kg dose for 7 days.; format: functional
L1210 [17] = experiment: In vivo anti tumor activity against L1210 leukemia in 19 mice measured as T/C values; T/C = 19/9; format: functional, Mus musculus
L1210 [18] = experiment: In vivo antitumor activity against L1210 leukemia in 5 mice measured as median survival range at 20 mg/kg; Value ranges from (11-17); format: functional, Mus musculus
Mus musculus [19] = experiment: Average weight of the mouse after treating with 40 mg/kg dose for 1 day.; format: functional; parameters: unit not given here
L1210 [20] = experiment: In vivo anti tumor activity against L1210 leukemia in 13 mice measured as T/C values at 20 mg/kg; T/C = 13/9; format: functional, Mus musculus
L1210 [21] = experiment: In vivo anti tumor activity against L1210 leukemia in 5 mice measured as Increased life span at 20 mg/kg.; format: functional; details: Mus musculus
L1210 [22] = experiment: In vivo anti tumor activity against L1210 leukemia in 5 mice measured as Increased life span at 40 mg/kg.; format: functional; details: Mus musculus
Mus musculus [23] = experiment: Average weight change in mouse after treating with 20 mg/kg dose for 7 days.; format: functional; parameters: unit not given beside the values
L1210 [24] = experiment: In vivo antitumor activity against L1210 leukemia in 5 mice measured as median survival range at 30 mg/kg; Value ranges from(17-22).; format: functional, Mus musculus
L1210 [25] = experiment: In vivo antitumor activity against L1210 leukemia in 5 mice measured as median survival range at 15 mg/kg; Value ranges from (12-14).; format: functional, Mus musculus
L1210 [26] = experiment: In vivo antitumor activity against L1210 leukemia in 12 mice measured as T/C values; T/C = 12/9; format: functional, Mus musculus
L1210 [27] = experiment: In vivo antitumor activity against L1210 leukemia in 5 mice measured as Increased life span at 30 mg/kg.; format: functional; details: Mus musculus
Mus musculus [28] = experiment: Average weight of the mouse after treating with 30 mg/kg dose for 7 day.; format: functional
L1210 [29] = experiment: In vivo antitumor activity against L1210 leukemia in 18 mice measured as T/C values; T/C = 18/9; format: functional, Mus musculus
Mus musculus [30] = experiment: Average weight change in mouse after treating with 15 mg/kg dose for 7 days.; format: functional
L1210 [31] = experiment: In vivo anti tumor activity against L1210 leukemia in 5 mice measured as Increased life span at 15 mg/kg.; format: functional; details: Mus musculus
L1210 [32] = experiment: In vivo antitumor activity against L1210 leukemia in 5 mice measured as median survival range at 80 mg/kg; Value ranges from(12-23).; format: functional, Mus musculus
L1210 [33] = experiment: In vivo antitumor activity against L1210 leukemia in 19 mice measured as T/C values(days); T/C = 19/9; format: functional, Mus musculus
L1210 [34] = experiment: In vivo antitumor activity against L1210 leukemia in 5 mice measured as Increased life span at 80 mg/kg.; format: functional; details: Mus musculus
L1210 [35] = experiment: In vivo antitumor activity against L1210 leukemia in 13 mice measured as T/C values(days); T/C = 13/9; format: functional, Mus musculus
L1210 [36] = experiment: In vivo antitumor activity against L1210 leukemia in 5 mice measured as median survival range at 40 mg/kg; Value ranges from(12-18); format: functional, Mus musculus
Mus musculus [37] = experiment: Average weight of the mouse after treating with 80 mg/kg dose for 7 days.; format: functional; parameters: unit not given beside the values
Mus musculus [38] = experiment: Average weight of the mouse after treating with 40 mg/kg dose for 7 days.; format: functional; parameters: unit not given beside the values
L1210 [39] = experiment: In vivo antitumor activity against L1210 leukemia in 5 mice measured as Increased life span at 40 mg/kg.; format: functional; details: Mus musculus
Mus musculus [40] = experiment: Average weight of the mouse after treating with 80 mg/kg dose for 1 day.; format: functional; parameters: unit not given here
L1210 [41] = experiment: In vivo antitumor activity against L1210 leukemia in 5 mice measured as median survival range at 20 mg/kg; Value ranges from (14-23); format: functional, Mus musculus
L1210 [42] = experiment: In vivo antitumor activity against L1210 leukemia in 5 mice measured as Increased life span at 10 mg/kg.; format: functional; details: Mus musculus
L1210 [43] = experiment: In vivo antitumor activity against L1210 leukemia in 5 mice measured as median survival range at 10 mg/kg; Value ranges from (13-18).; format: functional, Mus musculus
Mus musculus [44] = experiment: Average weight of the mouse after treating with 20 mg/kg dose for 7 days.; format: functional
L1210 [45] = experiment: In vivo antitumor activity against L1210 leukemia in 5 mice measured as T/C values; T/C = 23/9; format: functional, Mus musculus
L1210 [46] = experiment: In vivo antitumor activity against L1210 leukemia in 17 mice measured as T/C values; T/C = 17/9; format: functional, Mus musculus
L1210 [47] = experiment: In vivo antitumor activity against L1210 leukemia in 5 mice measured as Increased life span at 20 mg/kg.; format: functional; details: Mus musculus
L1210 [48] = experiment: In vivo antitumor activity against L1210 leukemia in 5 mice measured as median survival range at 40 mg/kg; Value ranges from(15-23); format: functional, Mus musculus
Mus musculus [49] = experiment: Average weight of the mouse after treating with 10 mg/kg dose for 7 day.; format: functional
Mus musculus [50] = experiment: Average weight of the mouse after treating with 10 mg/kg dose for 1 day.; format: functional; parameters: unit not given here
Mus musculus [51] = experiment: Average weight of the mouse after treating with 40 mg/kg dose for 7 day.; format: functional

CCCCOC(=O)CCC(NC(=O)c1ccc(N(C)Cc2cnc3nc(N)nc(N)c3n2)cc1)C(=O)OCCCC (configuration not stated)
Weight change (Mus musculus [1]): 5.1
Average weight (Mus musculus [2]): 24.9
Average weight (Mus musculus [3]): 26.1
ILS at 30 mg/kg (L1210 [4]): 66%
Weight change (Mus musculus [5]): 4.2
Average weight (Mus musculus [6]): 25.3
T/C (L1210 [7]): 9
ILS at 60 mg/kg (L1210 [8]): 88%
Range (L1210 [9]): 20
Weight change (Mus musculus [10]): 4.1
Range (L1210 [11]): 24
ILS (L1210 [12]): 77%
Range (L1210 [13]): 17

CCCOC(=O)CCC(NC(=O)c1ccc(N(C)Cc2cnc3nc(N)nc(N)c3n2)cc1)C(=O)OCCC (configuration not stated)
Average weight (Mus musculus [14]): 21.4
Range (L1210 [15]): 16
Weight change (Mus musculus [16]): 0.3
T/C (L1210 [17]): 19
Range (L1210 [18]): 17
Average weight (Mus musculus [19]): 21.1
T/C (L1210 [20]): 13
ILS at 20 mg/kg (L1210 [21]): 44%
ILS at 40 mg/kg (L1210 [22]): 100%
Weight change (Mus musculus [23]): 2.1

CN(Cc1cnc2nc(N)nc(N)c2n1)c1ccc(C(=O)NC(CCC(=O)OCc2ccccc2)C(=O)OCc2ccccc2)cc1 (configuration not stated)
Average weight (Mus musculus [3]): 25.6
Range (L1210 [24]): 22
Average weight (Mus musculus [6]): 25.8
Range (L1210 [25]): 14
T/C (L1210 [26]): 9
ILS at 30 mg/kg (L1210 [27]): 100%
Weight change (Mus musculus [28]): 1.6
T/C (L1210 [29]): 9
Weight change (Mus musculus [30]): 0.4
ILS at 15 mg/kg (L1210 [31]): 33%

CC(C)COC(=O)CCC(NC(=O)c1cc(Cl)c(N(C)Cc2cnc3nc(N)nc(N)c3n2)c(Cl)c1)C(=O)OCC(C)C (configuration not stated)
Range (L1210 [32]): 23
Average weight (Mus musculus [19]): 21.4
T/C (L1210 [33]): 9
ILS at 80 mg/kg (L1210 [34]): 111%
T/C (L1210 [35]): 9
Range (L1210 [36]): 18
Weight change (Mus musculus [37]): 1.3
Weight change (Mus musculus [38]): 0.1
ILS at 40 mg/kg (L1210 [39]): 44%
Average weight (Mus musculus [40]): 19.8

Cc1ccc(C)c(COC(=O)CCC(NC(=O)c2ccc(N(C)Cc3cnc4nc(N)nc(N)c4n3)cc2)C(=O)OCc2cc(C)ccc2C)c1 (configuration not stated)
Range (L1210 [41]): 23
Average weight (Mus musculus [14]): 22
ILS at 10 mg/kg (L1210 [42]): 88%
Range (L1210 [43]): 18
Average weight (Mus musculus [19]): 20.7
Weight change (Mus musculus [44]): 0.7
T/C (L1210 [45]): 9
T/C (L1210 [46]): 9
ILS at 20 mg/kg (L1210 [47]): 111%
Range (L1210 [48]): 23
Weight change (Mus musculus [49]): 1.6
ILS at 40 mg/kg (L1210 [39]): 155%
Average weight (Mus musculus [50]): 23
Weight change (Mus musculus [51]): 0.7

— ChEMBL document CHEMBL1122370 (J Med Chem, 1983)
